From publication PMC5640650, “NatD promotes lung cancer progression by preventing histone H4 serine phosphorylation to activate Slug expression” (Nature Communications, 2017)

Tests used:
CK2α = assay: Slug expression after CK2α RNA interference, H1299 cells; format: cell-based, human; details: Scr and NatD-KD H1299 cells, particularly in NatD-KD cells
Excerpt: Fig. 7 Downregulation of Nt-acetylation of histone H4 facilitates nuclear accumulation of CK2α and its binding to histone H4 in lung cancer cells. a Representative confocal scanning images of CK2α localization in Scr and H1299 cells (left panel). The staining intensity of CK2α was quantified by software ImageJ from NIH (right diagram). Scale bars, 5 μm. […] Equal peptide biotinylated on C terminus is shown by dot blot analysis with streptavidin (middle panel). […] IgG served as a negative control. Results are shown as mean ± s.d. from three independent experiments; two-tailed Student’s t-test, **P < 0.01 compared with the indicated control. g Quantitative real-time PCR analysis of mRNA levels of CK2α and Slug normalized to GAPDH in Scr and NatD-KD H1299 cells in the absence or presence of siRNA to CK2α. NC, siRNA mimics negative control. Data are mean ± s.d. of three independent experiments; Student’s t-test, *P < 0.05, **P < 0.01 compared with the indicated control. h Western blot analysis of indicated proteins from Scr and NatD-KD H1299 cells in the absence or presence of siRNA to CK2α.
siRNA against CK2α and negative control (NC) siRNA were synthesized by RiboBio Co. Ltd (Gaungzhou, China).

H1299 cells = assay: TGF-β1-induced EMT experiment (morphology), H1299 cells; format: cell-based, human; details: Scr H1299 cells, TGF-β1
Excerpt: Fig. 4 Silencing NatD suppresses cancer cell EMT by downregulating Slug. a Representative phase contrast images of Scr and NatD-KD H1299 cells treated with TGF-β1. Data are representative of three independent experiments. Scale bar, 100 μm. b Quantitative real-time PCR analysis of mRNA levels of indicated key EMT-related genes in Scr and NatD-KD H1299 cells normalized to GAPDH in the absence or presence of TGF-β1. Results are shown as mean ± s.d. of three independent experiments. Two-tailed Student’s t-test was used. **P < 0.01 or *P < 0.05 compared with the indicated control. c Western blot analysis of indicated protein levels in Scr and NatD-KD H1299 cells in the absence or presence of TGF-β1. GAPDH served as a loading control. Data are representative of three independent experiments. d Immunofluorescence analysis of Scr and NatD-KD H1299 cells in the absence or presence of TGF-β1 stained for E-cadherin and N-cadherin. […] (bottom panels) Cells were counted in at least four random microscope fields (×100 magnification) for the corresponding assays; migration and invasion are expressed as a percentage of control. […] Two-tailed Student’s t-test was used. **P < 0.01 compared with the indicated control. g Quantitative real-time PCR analysis of the mRNA levels of NatD and indicated key EMT-related genes (normalized to GAPDH) in Scr cells, NatD-KD cells, and NatD-KD + Slug cells. […]

Substance | Slug expression after CK2α knockdown (CK2α) | Slug expression after CK2α knockdown (CK2α; listed as knockdown of CK2α by RNA interference) | morphology on TGF-β1 treatment, Scr cells (H1299 cells)
CK2α siRNA: siRNA against CK2α: 5′-GAAUUAGAUCCACGUUUCA-3′ (chemistry not given here) | greatly activated | significantly increased | –
TGF-β1: TGF-β1 used to induce EMT [reference compound] | – | – | developed a spindle-like appearance and mesenchymal morphology
